Reference: patent US10759798B2, “ABT-199 addition salt and crystal form thereof, preparation method thereof, and pharmaceutical composition thereof” (Hangzhou SoliPharma Co., Ltd, priority 2016, dated 2020)
“Also recorded” adds a separate entry of the source. Counter-ions that a name gives are not always drawn.

How the values were obtained:
[1] = Storage stability at room temperature and 10%-90% RH for 4 months; format: physicochemical; details: room temperature
[2] = Water solubility test (Comparative Example 4); format: physicochemical; details: 25° C.
Experimental: The ABT-199 dihydrochloride Form 1 prepared by the invention and the known ABT-199 hydrochloride Form II prepared according to the Preparation Example 2 were tested for water solubility. In specific, 10 mg sample was placed in a 20 mL glass bottle, and added with 10 mL deionized water at 25° C. to form a suspension, which was stirred for 24 hours at 25° C., filtered, and detected by HPLC, and the solubility of the sample in water was calculated.

[3] = Crystalline stability at 130° C. for 1 day by XRPD (Comparative Example 2); format: physicochemical; details: for crystalline form after being stored at 130° C. for 1 day: XRPD
Experimental: The ABT-199 monohydrochloride Form B prepared by the present invention was compared with the known ABT-199 hydrochloride Form II prepared according to the Preparation Example 2. In specific, 30 mg samples were placed at 130° C. for 1 day, and XRPD was carried out to investigate the crystalline stability.

[4] = Slurry competition experiment for crystalline form stability (Comparative Example 3); format: physicochemical; details: for crystalline form in slurry competition experiment: water-saturated ethyl acetate, 3 days, room temperature or 40° C.
Experimental: The ABT-199 monohydrochloride Form C prepared by the invention and the known ABT-199 hydrochloride Form II prepared by Preparation Example 2 were used for the competition experiment to test the crystalline form stability. In specific, 20 mg ABT-199 Form II and 20 mg ABT-199 monohydrochloride Form C samples were added to the same water-saturated ethyl acetate to form slurries, which were stirred for 3 days at room temperature or at 40° C., then the samples were analyzed by XRPD to investigate their crystalline form stability.

[5] = Water solubility test (Comparative Example 1); format: physicochemical
Experimental: The ABT-199 monohydrochloride Form A prepared in the present invention was compared with the known ABT-199 hydrochloride Form II prepared according to the Preparation Example 2 in a water solubility test. In specific, 10 mg sample was placed in a 50 mL glass bottle, and added with 10 mL deionized water dropwisely at 25° C. to form a suspension. The suspension was treated with ultrasonics until the suspension was stirred for 24 hours and the sample was almost dissolved, the resultant solution was filtered and subject to HPLC detection, and the sample solubility in water was calculated.

[6] = cited from earlier work
[7] = slurry of Form II and Form C in water-saturated ethyl acetate, XRPD

For `CC1(C)CCC(CN2CCN(c3ccc(C(=O)NS(=O)(=O)c4ccc(NCC5CCOCC5)c([N+](=O)[O-])c4)c(Oc4cnc5[nH]ccc5c4)c3)CC2)=C(c2ccc(Cl)cc2)C1` [ABT-199 dihydrochloride Form 1], the “appearance, XRPD pattern and melting point after storage” value (“appearance … after storage” for short) ([1]; listed as Form 1) was “remains unchanged”, the solubility at 24 h ([2]; thermodynamic from solid, deionized water, stirred 24 hours, HPLC) was about 50 µg/mL and the “solubility in water compared with known ABT-199 hydrochloride Form II” value [2] was “higher solubility”. For the same molecule, the “solubility in water compared with known ABT-199 hydrochloride Form II” value ([2]; listed as Form 1) was “higher”.

For `CC1(C)CCC(CN2CCN(c3ccc(C(=O)NS(=O)(=O)c4ccc(NCC5CCOCC5)c([N+](=O)[O-])c4)c(Oc4cnc5[nH]ccc5c4)c3)CC2)=C(c2ccc(Cl)cc2)C1.Cl` [ABT-199 hydrochloride Form II, reference compound], the “crystalline form after being stored at 130° C. for 1 day” value (“crystalline form after being stored” below) ([3]; 130° C., 1 day, listed as ABT-199 monohydrochloride Form II) was “changes; also recorded: Phase transition occurred”, the “stability at high temperature (in words)” value ([3]; high temperature) was “poor stability at high temperature” and the “crystalline form after stirring at 40° C. for 3 days” value [4, 7] was “Convered to Form C”. For the same molecule, the “crystalline form in slurry competition experiment” value [4] was “changed to Form C”, the “crystalline form in slurry competition experiment” value ([4]; listed as ABT-199 monohydrochloride Form II) was “converted to Form C” and the solubility ([2]; deionized water, stirred 24 hours, HPLC) was “About 20 μg/mL”. For the same molecule, the solubility ([5]; deionized water, 25° C., 24 hours, HPLC) was “About 20 μg/mL” and the “solubility in water (in words)” value ([5]; water) was “low solubility in water”.

In the case of `CC1(C)CCC(CN2CCN(c3ccc(C(=O)NS(=O)(=O)c4ccc(NCC5CCOCC5)c([N+](=O)[O-])c4)c(Oc4cnc5[nH]ccc5c4)c3)CC2)=C(c2ccc(Cl)cc2)C1` [ABT-199 hydrochloride Form I], the “stability when exposed to air” value [6] is given as “easily converted to ABT-199 hydrochloride Form II”.

For `CC1(C)CCC(CN2CCN(c3ccc(C(=O)NS(=O)(=O)c4ccc(NCC5CCOCC5)c([N+](=O)[O-])c4)c(Oc4cnc5[nH]ccc5c4)c3)CC2)=C(c2ccc(Cl)cc2)C1` [ABT-199 monohydrochloride Form A], the “appearance … after storage” value ([1]; listed as Form A) was “unchanged”, the solubility at 24 h ([5]; thermodynamic from solid, deionized water, 25° C., 24 hours, HPLC) was about 40 µg/mL and the “solubility in water compared with known ABT-199 hydrochloride Form II” value ([5]; water, 25° C.) was “higher solubility”.

In the case of `CC1(C)CCC(CN2CCN(c3ccc(C(=O)NS(=O)(=O)c4ccc(NCC5CCOCC5)c([N+](=O)[O-])c4)c(Oc4cnc5[nH]ccc5c4)c3)CC2)=C(c2ccc(Cl)cc2)C1` [ABT-199 monohydrochloride Form B], the “appearance … after storage” value ([1]; listed as Form B) is reported as “remains unchanged”, the “high-temperature stability compared with known ABT-199 hydrochloride Form II” value ([3]; 130° C., 1 day) is reported as “better high-temperature-stability” and the “crystalline form after being stored” value ([3]; 130° C., 1 day) is reported as “Form B”. The “crystalline form after being stored” value ([3]; 130° C., 1 day, listed as Form B) was “does not change”.

For `CC1(C)CCC(CN2CCN(c3ccc(C(=O)NS(=O)(=O)c4ccc(NCC5CCOCC5)c([N+](=O)[O-])c4)c(Oc4cnc5[nH]ccc5c4)c3)CC2)=C(c2ccc(Cl)cc2)C1` [ABT-199 monohydrochloride Form C], the “appearance … after storage” value ([1]; listed as Form C) was “remains unchanged”, the “crystalline form after stirring at 40° C. for 3 days” value [4, 7] was “Form C” and the “crystalline form after stirring at room temperature for 3 days” value ([4]; slurry of Form II and Form C in water-saturated ethyl acetate, room temperature, XRPD) was “Form C”. For the same molecule, the “crystalline form in slurry competition experiment” value [4] was “remains unchanged”.
